As usually defined, the melting point is the temperature of the solid-liquid transition. As to `Cc1cc(-c2cc(C(F)(F)F)n3ncc(-c4nc(-c5cccc(S(N)(=O)=O)c5)no4)c3n2)ccc1C(F)(F)F` [Example 17, 3-{5-[5-(3-Methyl-4-trifluoromethyl-phenyl)-7-trifluoromethyl-pyrazolo[1,5-a]pyrimidin-3-yl]-[1,2,4]oxadiazol-3-yl}-benzenesulfonamide], the melting point was 270 °C.

Molecule `NS(=O)(=O)c1ccc(-c2noc(-c3cnc4ccc(-c5ccc(Cl)cc5)cn34)n2)s1` [Example 55, 5-{5-[6-(4-Chloro-phenyl)-imidazo[1,2-a]pyridin-3-yl]-[1,2,4]oxadiazol-3-yl}-thiophene-2-sulfonic acid amide] yielded a melting point of 263 °C.

For `Nc1cc(-c2noc(-c3cnn4c(C(F)(F)F)cc(-c5ccc(Cl)cc5)nc34)n2)ccn1` [Example 85, 4-{5-[5-(4-Chloro-phenyl)-7-trifluoromethyl-pyrazolo[1,5-a]pyrimidin-3-yl]-[1,2,4]oxadiazol-3-yl}-pyridin-2-ylamine], the melting point was found to be 252 °C.

For `Cc1cc(-c2ccc(Cl)cc2)nc2c(-c3nc(-c4ccc(S(N)(=O)=O)s4)no3)cnn12` [Example 32, 5-{5-[5-(4-Chloro-phenyl)-7-methyl-pyrazolo[1,5-a]pyrimidin-3-yl]-[1,2,4]oxadiazol-3-yl}-thiophene-2-sulfonic acid amide], the melting point stood at 253 °C.

In turn, `NS(=O)(=O)c1cccc(-c2noc(-c3cnn4c(C(F)F)cc(-c5ccc(C(F)(F)F)cc5)nc34)n2)c1` [Example 5, 3-{5-[7-Difluoromethyl-5-(4-trifluoromethyl-phenyl)-pyrazolo[1,5-a]pyrimidin-3-yl]-[1,2,4]oxadiazol-3-yl}-benzenesulfonamide] registered a melting point of 267 °C.

`NS(=O)(=O)c1ccc(-c2noc(-c3cnn4ccc(-c5ccc(C(F)(F)F)cc5)nc34)n2)s1` [Example 52, 5-{5-[5-(4-Trifluoromethyl-phenyl)-pyrazolo[1,5-a]pyrimidin-3-yl]-[1,2,4]oxadiazol-3-yl}-thiophene-2-sulfonic acid amide] yielded a melting point of 251 °C.

On to `Nc1cc(-c2noc(-c3cnn4c(C(F)(F)F)cc(-c5ccc(Cl)c(Cl)c5)nc34)n2)ccn1` [Example 86, 4-{5-[5-(3,4-Dichloro-phenyl)-7-trifluoromethyl-pyrazolo[1,5-a]pyrimidin-3-yl]-[1,2,4]oxadiazol-3-yl}-pyridin-2-ylamine], for which the melting point amounted to 262 °C.

For the molecule `Nc1ccc(-c2noc(-c3cnn4c(C(F)(F)F)cc(-c5ccc(C(F)(F)F)c(OCC(F)(F)F)c5)nc34)n2)cn1` [Example 70, 5-(5-{5-[3-(2,2,2-Trifluoro-ethoxy)-4-trifluoromethyl-phenyl]-7-trifluoromethyl-pyrazolo[1,5-a]pyrimidin-3-yl}-[1,2,4]oxadiazol-3-yl)-pyridin-2-ylamine], the melting point turned out to be 284 °C.

Take `Nc1ccc(-c2noc(-c3cnn4c(C(F)(F)F)cc(-c5ccc(C(F)(F)F)cc5)nc34)n2)cn1` [Example 35, 5-{5-[7-Trifluoromethyl-5-(4-trifluoromethyl-phenyl)-pyrazolo[1,5-a]pyrimidin-3-yl]-[1,2,4]oxadiazol-3-yl}-pyridin-2-ylamine]: the melting point stood at 257 °C.

`Nc1ccc(-c2noc(-c3cnn4c(C(F)F)cc(-c5ccc(Cl)cc5)nc34)n2)cn1` [Example 63, 5-{5-[5-(4-Chloro-phenyl)-7-difluoromethyl-pyrazolo[1,5-a]pyrimidin-3-yl]-[1,2,4]oxadiazol-3-yl}-pyridin-2-ylamine] came in with a melting point of 254 °C.

The molecule `NS(=O)(=O)c1cccc(-c2nc(-c3cnn4c(C(F)(F)F)cc(-c5ccc(C(F)(F)F)cc5)nc34)no2)c1` [Example 15, 3-{3-[7-Trifluoromethyl-5-(4-trifluoromethyl-phenyl)-pyrazolo[1,5-a]pyrimidin-3-yl]-[1,2,4]oxadiazol-5-yl}-benzenesulfonamide] came in with a melting point of 285 °C.

As for `Nc1ncc(-c2noc(-c3cnn4c(C(F)(F)F)cc(-c5ccc(Cl)c(Cl)c5)nc34)n2)cn1` [Example 81, 5-{5-[5-(3,4-Dichloro-phenyl)-7-trifluoromethyl-pyrazolo[1,5-a]pyrimidin-3-yl]-[1,2,4]oxadiazol-3-yl}-pyrimidin-2-ylamine], the melting point was 300 °C.

Molecule `Cc1cc(-c2cc(C(F)(F)F)n3ncc(-c4nc(-c5ccc(S(N)(=O)=O)cc5)no4)c3n2)ccc1C(F)(F)F` [Example 18, 4-{5-[5-(3-Methyl-4-trifluoromethyl-phenyl)-7-trifluoromethyl-pyrazolo[1,5-a]pyrimidin-3-yl]-[1,2,4]oxadiazol-3-yl}-benzenesulfonamide] registered a melting point of 273 °C.

As for `Nc1ccc(-c2noc(-c3cnn4c(C(F)(F)F)cc(-c5ccc(C(F)(F)F)c(Cl)c5)nc34)n2)cn1` [Example 73, 5-{5-[5-(3-Chloro-4-trifluoromethyl-phenyl)-7-trifluoromethyl-pyrazolo[1,5-a]pyrimidin-3-yl]-[1,2,4]oxadiazol-3-yl}-pyridin-2-ylamine], the melting point was determined as 234 °C.

As to `Nc1ccc(-c2noc(-c3cnc4ccc(-c5ccc(C(F)(F)F)cc5)cn34)n2)cn1` [Example 56, 5-{5-[6-(4-Trifluoromethyl-phenyl)-imidazo[1,2-a]pyridin-3-yl]-[1,2,4]oxadiazol-3-yl}-pyridin-2-ylamine], the melting point amounted to 258 °C.

In turn, `NS(=O)(=O)c1ccc(-c2noc(-c3cnn4c(C(F)(F)F)cc(-c5ccc(Cl)cc5)nc34)n2)cc1` [Example 12, 4-{5-[5-(4-Chloro-phenyl)-7-trifluoromethyl-pyrazolo[1,5-a]pyrimidin-3-yl]-[1,2,4]oxadiazol-3-yl}-benzenesulfonamide] returned a melting point of 296 °C.

For the molecule `NS(=O)(=O)c1ccc(-c2noc(-c3cnc4ccc(-c5ccc(C(F)(F)F)cc5)cn34)n2)cc1` [Example 50, 4-{5-[6-(4-Trifluoromethyl-phenyl)-imidazo[1,2-a]pyridin-3-yl]-[1,2,4]oxadiazol-3-yl}-benzenesulfonamide], the melting point was found to be 288 °C.

The molecule `NS(=O)(=O)c1ccc(-c2noc(-c3cnc4ccc(-c5ccc(C(F)(F)F)cc5)cn34)n2)s1` [Example 54, 5-{5-[6-(4-Trifluoromethyl-phenyl)-imidazo[1,2-a]pyridin-3-yl]-[1,2,4]oxadiazol-3-yl}-thiophene-2-sulfonic acid amide] returned a melting point of 280 °C.

`NS(=O)(=O)c1cccc(-c2noc(-c3cnc4ccc(-c5ccc(C(F)(F)F)cc5)cn34)n2)c1` [Example 51, 3-{5-[6-(4-Trifluoromethyl-phenyl)-imidazo[1,2-a]pyridin-3-yl]-[1,2,4]oxadiazol-3-yl}-benzenesulfonamide] returned a melting point of 288 °C.

In turn, `NS(=O)(=O)c1cccc(-c2noc(-c3cnn4ccc(-c5ccc(Cl)cc5)nc34)n2)c1` [Example 49, 3-{5-[5-(4-Chloro-phenyl)-pyrazolo[1,5-a]pyrimidin-3-yl]-[1,2,4]oxadiazol-3-yl}-benzenesulfonamide] had a melting point of 223 °C.

For `Nc1ccc(-c2noc(-c3cnn4c(C(F)F)cc(-c5ccc(C(F)(F)F)cc5)nc34)n2)cn1` [Example 36, 5-{5-[7-Difluoromethyl-5-(4-trifluoromethyl-phenyl)-pyrazolo[1,5-a]pyrimidin-3-yl]-[1,2,4]oxadiazol-3-yl}-pyridin-2-ylamine], the melting point is 242 °C.

In the case of `NS(=O)(=O)c1ccc(-c2noc(-c3cnn4c(C(F)(F)F)cc(-c5ccc(C(F)(F)F)c(OCC(F)(F)F)c5)nc34)n2)s1` [Example 23, 5-(5-{5-[3-(2,2,2-Trifluoro-ethoxy)-4-trifluoromethyl-phenyl]-7-trifluoromethyl-pyrazolo[1,5-a]pyrimidin-3-yl}-[1,2,4]oxadiazol-3-yl)-thiophene-2-sulfonic acid amide], the melting point worked out at 255 °C.

For the molecule `CCOc1cc(-c2cc(C(F)(F)F)n3ncc(-c4nc(-c5ccc(N)nc5)no4)c3n2)ccc1C(F)(F)F` [Example 69, 5-{5-[5-(3-Ethoxy-4-trifluoromethyl-phenyl)-7-trifluoromethyl-pyrazolo[1,5-a]pyrimidin-3-yl]-[1,2,4]oxadiazol-3-yl}-pyridin-2-ylamine], the melting point stood at 263 °C.

`Cc1cc(-c2ccc(Cl)cc2)cn2c(-c3nc(-c4cccc(S(N)(=O)=O)c4)no3)cnc12` [Example 40, 3-{5-[6-(4-Chloro-phenyl)-8-methyl-imidazo[1,2-a]pyridin-3-yl]-[1,2,4]oxadiazol-3-yl}-benzenesulfonamide] had a melting point of 301 °C.

As for `Nc1cc(-c2noc(-c3cnn4c(C(F)(F)F)cc(-c5ccc(C(F)(F)F)cc5)nc34)n2)ccn1` [Example 58, 4-{5-[7-Trifluoromethyl-5-(4-trifluoromethyl-phenyl)-pyrazolo[1,5-a]pyrimidin-3-yl]-[1,2,4]oxadiazol-3-yl}-pyridin-2-ylamine], the melting point turned out to be 277 °C.

For the molecule `Cc1cc(-c2cc(C(F)F)n3ncc(-c4nc(-c5ccc(N)nc5)no4)c3n2)ccc1C(F)(F)F` [Example 65, 5-{5-[7-Difluoromethyl-5-(3-methyl-4-trifluoromethyl-phenyl)-pyrazolo[1,5-a]pyrimidin-3-yl]-[1,2,4]oxadiazol-3-yl}-pyridin-2-ylamine], the melting point worked out at 231 °C.

For `NS(=O)(=O)c1cccc(-c2noc(-c3cnn4c(C(F)(F)F)cc(-c5ccc(Cl)cc5)nc34)n2)c1` [Example 10, 3-{5-[5-(4-Chloro-phenyl)-7-trifluoromethyl-pyrazolo[1,5-a]pyrimidin-3-yl]-[1,2,4]oxadiazol-3-yl}-benzenesulfonamide], the melting point was 247 °C.

Molecule `Cc1cc(-c2ccc(C(F)(F)F)cc2)cn2c(-c3nc(-c4ccc(S(N)(=O)=O)s4)no3)cnc12` [Example 45, 5-{5-[8-Methyl-6-(4-trifluoromethyl-phenyl)-imidazo[1,2-a]pyridin-3-yl]-[1,2,4]oxadiazol-3-yl}-thiophene-2-sulfonic acid amide] yielded a melting point of 285 °C.

On to `NS(=O)(=O)c1ccc(-c2noc(-c3cnn4c(C(F)(F)F)cc(-c5cccc(C(F)(F)F)c5)nc34)n2)cc1` [Example 25, 4-{5-[7-Trifluoromethyl-5-(3-trifluoromethyl-phenyl)-pyrazolo[1,5-a]pyrimidin-3-yl]-[1,2,4]oxadiazol-3-yl}-benzenesulfonamide], for which the melting point was found to be 300 °C.

For the origin of these results see US8349844B2, “Substituted pyrazolo [1,5-A] pyrimidines as metabotropic glutamate antagonists” (Hoffmann-La Roche Inc., priority 2005, dated 2013).
